Three compounds from US10774046B2, “Inhibitors for the treatment of cancer and related methods” (UNIVERSITY OF LOUISVILLE RESEARCH FOUNDATION, INC., priority 2017, dated 2020) can be followed below.

Data set [1] deals with Lewis lung carcinoma (LLC) tumors. In words: Lewis lung carcinoma tumor growth in syngeneic mice. Format: in vivo, C57BL/6 mice. The procedure: For xenograft studies, exponentially growing LLC or H460 cells were detached, washed and resuspended in PBS. Female C57BL/6 mice (Jackson Labs) were injected with LLC cells (n=10/group, s.c., 1×10^6 cells) and female BALB/c athymic mice (Jackson Labs) with H460 cells (n=10/group, s.c, 5×10^6 cells). Tumor masses were determined in a blinded fashion with Vernier calipers using the formula: mass (mg)=(width, mm)^2×(length, mm)/2 as previously described. When tumor masses were 150-200 mg, mice were randomized to daily intraperitoneal DMSO or 5MPN at the indicated dose in 50 μL DMSO. Tumor measurements and body weights were followed daily. All data are expressed as the mean±SD of two experiments. Statistical significance was assessed by the two-sample t test (independent variable).
Method: C57BL/6 mice (Charles River) were implanted with 1×10^6 Lewis lung carcinoma cells subcutaneously and, after tumors developed, were followed by caliper measurements daily to quantify tumor mass using the formula: tumor mass=(length×width^2)/2. When tumors were ˜150-200 mg, mice were randomized to daily oral DMSO±Formula (VIII) (n=10/group) at 40 mg/kg in 50 μL DMSO and tumor growth followed×9 days. (* signifies statistical significance)

For data set [2], the target named is human recombinant PFKFB4 (Homo sapiens, UniProt Q16877). In words: ADP-Glo kinase assay. Type of data set: biochemical. How it is done:
The fructose-6-phosphate kinase activity of human recombinant PFKFB4 in the presence of DMSO±indicated 5MPN concentrations was assayed as previously described. The activity of 5MPN against 97 kinases was examined using a commercially available active-site dependent competition binding assay core service (KINOMEscanEDGE) that quantifies the capacity of test agents to compete with an immobilized, active-site directed ligand using a DNA-tagged kinase and immobilized ligand and compound. For example, enzyme inhibition was studied using an ADP-Glo assay. The effect of MPN-2 on the activity of recombinant human PFKFB4 enzyme was examined in an ADP-Glo assay (Promega), which measures ADP formed from a kinase reaction. ADP is converted into ATP, which is converted into light by a luciferase. PFKFB4 protein was exposed to MPN-2 at indicated concentrations in the presence of ATP and fructose-6-phosphate and following manufacturer's instructions, ADP-Glo and kinase detections reagents were added. The data are shown as the decrease in luminescence caused by MPN-2 relative to DMSO.
Method: The efficacy of Formula (VIII) in inhibition of the kinase activity of the PFKFB4 enzyme was examined by exposing recombinant human PFKFB4 protein to Formula (VIII) in the ADP-Glo kinase assay (Promega) which measures ADP formed through a kinase reaction. Briefly, recombinant protein, ATP, substrate and Formula (VIII) were incubated together for the kinase reaction followed by the addition of ADP-Glo reagent, used to terminate the kinase reaction. Lastly, a kinase detection reagent was added to convert the newly formed ADP to ATP which was measured by a luciferase reaction. Data are shown in FIG. 10 as the decrease in luminescence caused by Formula (VIII) relative to DMSO.
Method: The efficacy of FB4-32 and FB4-35 in inhibition of the kinase activity of the PFKFB4 enzyme was examined by exposing recombinant human PFKFB4 protein to FB4-32 and FB4-35 in the ADP-Glo kinase assay (Promega) which measures ADP formed through a kinase reaction. Briefly, recombinant protein, ATP, substrate and FB4-32 or FB4-35 were incubated together for the kinase reaction followed by the addition of ADP-Glo reagent to terminate the kinase reaction. Last, a kinase detection reagent was added to convert the newly formed ADP to ATP which was measured by a luciferase reaction. Data are shown as the decrease in luminescence caused by FB4-32 and FB4-35 relative to DMSO.
A general note: ADP-Glo first removes unused ATP, then detects ADP through luciferase.

Data set [3] relates to H460 cells. Kind of data set: intracellular ATP measurement. Type of data set: cell-based, human. The procedure:
H460 cells were exposed to the indicated concentrations of MPN-2 and ATP production was examined. Cells were lysed and intracellular ATP determined as described previously. For example, cells were washed (while still adherent) with cold PBS 1×, lysed with Passive Lysis Buffer (1×; Molecular Probes, Invitrogen) added directly to the plates, and immediately harvested by scraping. The lysates were flash frozen (to −80° C.) and thawed (to 37° C.) once to accomplish complete lysis and then centrifuged (at 4° C.) for 30 seconds to clear the lysates. Intracellular ATP levels were determined using a bioluminescence assay (Molecular Probes), utilizing recombinant firefly luciferase and its substrate, D-luciferin. The luminescence was read in a TD-20/20 luminometer (Turner Designs) at 560 nm. The ATP values were calculated using an ATP standard curve. The protein concentrations of the lysates were estimated using the BCA assay (Pierce Biotechnology) and ATP was expressed as pmol/μg protein. All data are expressed as the mean±SD of three experiments. Statistical significance was assessed by the two-sample t test (independent variable).

The subject of data set [4] is LLC tumors. In words: tumor glucose uptake by FDG micro-PET. Type of data set: in vivo, C57BL/6 mice. The procedure:
At the end of the experiment, animals were euthanized, tumors removed and sections fixed in 10% formaldehyde for immunohistochemistry or snap-frozen in liquid nitrogen for analyses. Subsets of tumor-bearing mice (n=3) were injected i.p. with 2-[^18F]-fluoro-2-deoxyglucose (FDG, 150 μCi, 100 μl) and imaged by micro-positron emission tomography as previously described. Regions of interest in the tumors and cerebellum were quantified in quadruplicate and expressed as the mean±SD of the tumor:cerebellar FDG uptake ratio. Animal experiments were approved by the University of Louisville Institutional Animal Care and Use Committee.
Method: FDG-PET was conducted on tumor-bearing mice to determine acute effects of Formula (VIII) on glucose uptake. C57BL/6 mice (Charles River) with subcutaneous Lewis lung carcinoma tumors were injected intraperitoneally with 100 μCi of ^18F-fluoro-2-deoxy-glucose under isoflurane anesthesia and subjected to a 15-minute static scan 45 minutes after tracer injection at baseline. […] Tumor/cerebellum ROI (regions of interest) were quantified, representative sagittal cuts from mice are shown with arrows showing the tumors on the animals. (* signifies statistical significance).

Chain of human recombinant PFKFB4 (Q16877 whole entry): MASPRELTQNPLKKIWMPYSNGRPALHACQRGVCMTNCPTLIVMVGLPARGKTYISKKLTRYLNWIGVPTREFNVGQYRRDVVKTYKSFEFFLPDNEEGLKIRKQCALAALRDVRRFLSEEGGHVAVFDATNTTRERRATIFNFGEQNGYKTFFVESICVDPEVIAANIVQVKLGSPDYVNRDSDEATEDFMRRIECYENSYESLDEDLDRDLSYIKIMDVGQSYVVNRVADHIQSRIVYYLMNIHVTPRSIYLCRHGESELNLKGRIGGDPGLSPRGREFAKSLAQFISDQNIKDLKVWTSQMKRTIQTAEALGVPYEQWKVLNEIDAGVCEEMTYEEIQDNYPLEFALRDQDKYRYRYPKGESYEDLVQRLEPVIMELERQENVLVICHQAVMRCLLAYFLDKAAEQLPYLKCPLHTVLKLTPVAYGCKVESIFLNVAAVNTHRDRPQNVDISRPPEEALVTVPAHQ

“5-[(8-methoxy-2-methylquinolin-1-ium-4-yl)amino]pentyl nitrate [MPN-2]”: the tumor growth entry in data set [1] (intraperitoneal injection 10 mg/kg daily, eleven days) is listed as “suppressed the growth”. The “kinase activity of the PFKFB4 enzyme (luminescence relative to DMSO)” value in data set [2] is recorded as “inhibited”. The ATP production entry in data set [3] (H460, indicated concentrations of MPN-2, 48 hours) is given as “decreased”.

With `COc1cccc2c(NCCCCCNC(=O)C(F)(F)F)ccnc12` [Formula (VIII), 2,2,2-trifluoro-N-(5-((8-methoxyquinolin-4-yl)amino)pentyl)acetamide], the “tumor FDG uptake” value in data set [4] (40 mg/kg PO x1, PET after 60 minutes) is on record as “decrease in tumor FDG uptake compared with vehicle”. Further, in data set [1] (oral 40 mg/kg daily, 9 days), the established tumor growth result is reported as “decreased established tumor growth”. Further, in data set [2], the “kinase activity of the PFKFB4 enzyme (luminescence relative to DMSO)” value is recorded as “inhibited”.

With `COc1cccc2c(NCCCCCO[N+](=O)[O-])ccnc12` [5MPN, 5-[(8-methoxyquinolin-4-yl)amino]pentyl nitrate], the “2-[18F]-fluoro-2-deoxyglucose uptake” value in data set [4] (5MPN 120 mg/kg by gavage, once) is reported as “reduction”. In addition, the tumor growth result in data set [1] (5MPN 120 mg/kg oral daily, ten days) was “suppressed the growth”. The body weight entry in data set [1] (LLC-bearing mice, 120 mg/kg oral daily) was “without affecting body weight”. Also, the ATP result in data set [3] (H460, 10 μM 5MPN, 6-72 hours) is listed as “reduced”.
